Laboratory results taken from patent publication US8987284B2, “Phosphorus containing quinazoline compounds and methods of use” (Newgen Therapeutics, Inc., priority 2009, dated 2015).
Read-outs that look alike come from different tables or passages of the source.

Experiments:
EGFR kinase = target: T1, EGFR kinase (Homo sapiens, UniProt P00533); assay: Kinase assay for EGFR (TR-FRET LanthaScreen); assay type: biochemical; details: % inhibition at 100 nM or IC50 (nM)
T1 construct: purchased Invitrogen PV3872
Experimental: The extent to which the compounds of the present invention modulate EGFR kinase activity can be determined using time-resolved Fret (TR-FRET) assay (LanthaScreen® kinase activity assay, from Invitrogen). The assay employs EGFR kinase (PV3872, Invitrogen), Tb-Py20 antibody (PV3552, Invitrogen) and fluorescein-poly GT (PV3610, In vitrogen)
The assay is performed in a Black 384-well plate (available from Corning). EGFR kinase (is diluted in TR-FRET Dilution Buffer (PV3189, InVitrogen) at concentration of 0.4 ug/ml as stock solution, and then 2-fold serial diluted. Addition of 1 mM ATP initiated the reaction, and the reaction is incubated for 1 h reaction at room temperature. 10 μL of the Tb-antibody (from Invitrogen)+EDTA (from Invitrogen) solution prepared was added to each well of the assay plate and mix briefly, and incubated for 30 min. The signal is monitored by using M5 microplate reader (Ex=332 nm, Em=488 nm and 518 nm). Each compound is tested in duplicate wells. EGFR without compound is used as control. Staurosporine (available from Sigma) is used as positive control compound. Inhibition was calculated as percentage of the EGFR activity (without compound)

BT474 cells = assay: Cell proliferation inhibition assay for BT474 (CCK-8); assay type: cell-based; details: Homo sapiens, BT-474; 72 h, 8 points
Experimental: Human breast cancer BT474 cells was cultured in low glucose DMEM (Life Technologies 12320-032) containing 10% fetal bovine serum (FBS) at 37° C. in a humidified 10% CO2, 90% air incubator. Cells were harvested using trypsin/EDTA, counted using a haemocytometer, and plated 10000 cell/well in a 96-well clear tissue culture plate. The cells were incubated for 24 h at 37° C. to allow adherence. A serials of concentrations of each compound (ranging from 30 uM to […], 5-fold dilution) in 96-well plate, and incubated for 72 h. Each concentration was tested in triplicate wells. During the cell proliferation assay, BT474 cells were cultured in low-glucose DMEM containing 5% FBS, 50 ug/ml gentamicin, and 0.3% v/v DMSO. The culture medium was removed via aspiration, and the cell viability was detected by using CCK-8 cell proliferation kit.

[1] = Pharmacokinetic study in mouse; assay type: in vivo; set-up: clearance: unit not given here; details: for AUC(0-inf): read-out: AUC0-inf-obs; for half-life: read-out: T½ (converted)
Experimental: (§1) The dog PK protocol is shown here, while PK study protocol of mouse and rat are similar to dog. Beagle dogs of this study were 6-8 month old and weighed 8 to 10 kg. Example 4 was dissolved in 2% DMA and 98% (40% HP-β-CD in deionized water) to yield concentration at 2 mg/mL for both intravenous (IV, a bolus injection via the lateral tail vein) and oral (PO, via oral gavage) administrations. Blood samples (approximately 1 ml) was collected via cephalic into tubes containing EDTA-K3 anticoagulant pre-dose and post-dose at 5 min, 15 min, 30 min, 1 h, 2 h, 4 h, 6 h, 8 h and 24 h. Blood samples were centrifuged at approximately 8000 rpm for 6 minutes at 2-8° C. and the resulting plasma were separated, labeled and stored frozen at approximately −80° C. Plasma samples analysis was performed by means of LC-MS/MS. The analytical results were confirmed using quality control samples for intra-assay variation.

[2] = Pharmacokinetic study in rat; assay type: in vivo; set-up: clearance: unit not given here; details: for AUC(0-inf): read-out: AUC0-inf-obs; for half-life: read-out: T½ (converted)
Experimental: as §1

[3] = Pharmacokinetic study in dog; assay type: in vivo, Beagle dogs; set-up: clearance: unit not given here; details: for AUC(0-inf): read-out: AUC0-inf-obs; for half-life: read-out: T½ (converted)
Experimental: as §1

NCI-N87 xenograft = assay: Anticancer effect against NCI-N87 xenograft; assay type: in vivo, Balb/c nude mice
Experimental: (§2) NCI-N87 cells were purchased from ATCC, and were cultured in RPMI1640+10% FBS+1% P/S antibiotics. Balb/c nude mice were male, 6-8 week old, and weighed 18^±2 g. The cells were implanted subcutaneously into the nude mice (right flank) with 5.0×10^6 cells in 0.1 ml PBS. When the tumor size reached a volume of 200 (150-200) mm^3, the tumor-bearing nude mice derived from NCI-N87 cells were randomly assigned into four groups (10 mice/group). All groups were dosed oral, BID. One group were dosed with vehicle, one group with Lapatinib (75 mg/kg of free base, in the form of ditosylate monoydrate), and the rest two groups with Example 4 (50, 100 mg/kg, p.o. Bid, respectively). The administration period lasted 4 weeks. The tumor volume were measured twice a week, and the body weight were measured immediately before measuring the tumor volume throughout the whole study. On day 11 after initiation of the treatment, the dosing of Example 4 at 100 mg/kg was suspended, and the dosing of the group was resumed on day 15 at a reduced dose of 75 mg/Kg. […] (See FIG. 1).

[4] = Body weight change of NCI-N87 xenograft mice; assay type: in vivo, Balb/c nude mice; details: po
Experimental: as §2, with “study.” for “study. On day 11 after initiation of the treatment, the dosing of Example 4 at 100 mg/kg was suspended, and the dosing of the group was resumed on day 15 at a reduced dose of 75 mg/Kg.”

[5] = mouse; cited from earlier work
[6] = rat; cited from earlier work
[7] = dog; cited from earlier work
[8] = plasma, IV, 2 mg/Kg, read-out: Vz

T1 sequence (P00533 25-1210): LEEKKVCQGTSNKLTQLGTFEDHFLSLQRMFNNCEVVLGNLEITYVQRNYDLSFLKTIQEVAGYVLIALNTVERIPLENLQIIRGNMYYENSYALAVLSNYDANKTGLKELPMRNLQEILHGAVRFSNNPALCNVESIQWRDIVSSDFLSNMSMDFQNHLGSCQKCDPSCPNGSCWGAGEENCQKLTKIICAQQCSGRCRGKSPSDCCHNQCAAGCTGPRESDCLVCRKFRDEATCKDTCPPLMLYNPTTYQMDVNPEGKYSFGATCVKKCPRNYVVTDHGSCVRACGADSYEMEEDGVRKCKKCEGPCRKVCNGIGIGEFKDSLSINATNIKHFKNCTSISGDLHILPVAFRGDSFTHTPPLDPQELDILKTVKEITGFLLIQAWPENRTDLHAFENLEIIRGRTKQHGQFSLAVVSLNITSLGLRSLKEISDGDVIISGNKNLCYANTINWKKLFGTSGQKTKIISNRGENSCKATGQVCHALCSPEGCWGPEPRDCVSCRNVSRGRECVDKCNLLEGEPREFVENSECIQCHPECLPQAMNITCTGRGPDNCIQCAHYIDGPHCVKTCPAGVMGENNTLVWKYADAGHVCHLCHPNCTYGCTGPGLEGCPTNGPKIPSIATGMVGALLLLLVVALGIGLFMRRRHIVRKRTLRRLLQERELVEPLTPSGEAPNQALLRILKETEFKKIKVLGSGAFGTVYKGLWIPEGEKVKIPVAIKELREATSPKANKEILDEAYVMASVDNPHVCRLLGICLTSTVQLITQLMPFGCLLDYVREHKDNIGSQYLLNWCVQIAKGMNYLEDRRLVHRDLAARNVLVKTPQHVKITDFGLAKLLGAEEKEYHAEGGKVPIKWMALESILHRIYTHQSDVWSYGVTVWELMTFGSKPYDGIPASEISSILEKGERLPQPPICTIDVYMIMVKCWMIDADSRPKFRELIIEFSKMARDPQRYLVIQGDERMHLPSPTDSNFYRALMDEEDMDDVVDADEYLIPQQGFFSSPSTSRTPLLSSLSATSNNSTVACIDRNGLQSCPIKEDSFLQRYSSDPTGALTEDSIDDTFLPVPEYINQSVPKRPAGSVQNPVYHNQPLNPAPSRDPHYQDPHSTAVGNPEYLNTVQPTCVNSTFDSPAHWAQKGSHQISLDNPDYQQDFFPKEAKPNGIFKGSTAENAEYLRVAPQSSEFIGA

SMILES: CP1(=O)CCN(CC#Cc2ccc3ncnc(Nc4ccc(OCc5cccc(F)c5)c(Cl)c4)c3c2)CC1 [Example 4, N-(3-chloro-4-(3-fluorobenzyloxy)phenyl)-6-(3-(4-methyl-1,4-azaphosphino-1-yl)prop-1-ynyl)quinazolin-4-amine]
- EGFR inhibition inhibit % at 100 nM or IC50 (nM) (EGFR kinase): ++ (>50% inhibition at 100 nM, or IC50 <100 nM for EGFR or ErbB2 kinases)
- IC50 (BT474 cells): < 100 nM
- F ([1]; PO, 10 mg/Kg): 36%
- AUC(0-t) ([1]; plasma, IV, 2 mg/Kg): 5070 ng·h/mL
- Cmax ([1]; plasma, IV, 2 mg/Kg): 1520 ng/mL
- clearance ([1]; plasma, IV, 2 mg/Kg): 6.5
- AUC(0-inf) ([1]; plasma, IV, 2 mg/Kg): 5080 ng·h/mL
- half-life ([1]; plasma, IV, 2 mg/Kg): 0.59 h
- Vd [1, 8]: 0.33 L
- AUC(0-t) ([1]; plasma, PO, 10 mg/Kg): 8830 ng·h/mL
- Cmax ([1]; plasma, PO, 10 mg/Kg): 2840 ng/mL
- AUC(0-inf) ([1]; plasma, PO, 10 mg/Kg): 9060 ng·h/mL
- half-life ([1]; plasma, PO, 10 mg/Kg): 1.41 h
- F ([2]; PO, 10 mg/Kg): 89.6%
- AUC(0-t) ([2]; plasma, IV, 2 mg/Kg): 2130 ng·h/mL
- Cmax ([2]; plasma, IV, 2 mg/Kg): 1570 ng/mL
- clearance ([2]; plasma, IV, 2 mg/Kg): 15.3
- AUC(0-inf) ([2]; plasma, IV, 2 mg/Kg): 2180 ng·h/mL
- half-life ([2]; plasma, IV, 2 mg/Kg): 19.9 h
- Vd [2, 8]: 7.92 L
- AUC(0-t) ([2]; plasma, PO, 10 mg/Kg): 9700 ng·h/mL
- Cmax ([2]; plasma, PO, 10 mg/Kg): 1800 ng/mL
- AUC(0-inf) ([2]; plasma, PO, 10 mg/Kg): 9780 ng·h/mL
- half-life ([2]; plasma, PO, 10 mg/Kg): 11.5 h
- F ([3]; PO, 10 mg/Kg): 100%
- AUC(0-t) ([3]; beagle, plasma, IV, 2 mg/Kg): 1480 ng·h/mL
- Cmax ([3]; beagle, plasma, IV, 2 mg/Kg): 1150 ng/mL
- clearance ([3]; beagle, plasma, IV, 2 mg/Kg): 22.3
- AUC(0-inf) ([3]; beagle, plasma, IV, 2 mg/Kg): 1490 ng·h/mL
- half-life ([3]; beagle, plasma, IV, 2 mg/Kg): 2.46 h
- Vd ([3]; beagle, plasma, IV, 2 mg/Kg, read-out: Vz): 1.44 L
- AUC(0-t) ([3]; beagle, plasma, PO, 10 mg/Kg): 7640 ng·h/mL
- Cmax ([3]; beagle, plasma, PO, 10 mg/Kg): 2380 ng/mL
- AUC(0-inf) ([3]; beagle, plasma, PO, 10 mg/Kg): 7720 ng·h/mL
- half-life ([3]; beagle, plasma, PO, 10 mg/Kg): 3.8 h
- tumor growth inhibition rate (NCI-N87 xenograft; 50 mg/Kg, p.o. BID, 4 weeks): 85%
- tumor growth inhibition rate (NCI-N87 xenograft; 100/75 mg/Kg, p.o. BID, 4 weeks (suspended, resumed at 75 mg/Kg)): 88%
- body weight loss (average) ([4]; 100 mg/Kg, bid, day 10): 16.9%
- body weight after dosing suspension and resumption ([4]; suspension for 3 days, resumed at 75 mg/kg): recovered and remained normal

SMILES: C#Cc1cc(Nc2ncnc3ccc(-c4ccc(CN5CCP(C)(=O)CC5)o4)cc23)ccc1OCc1cccc(F)c1 [Example 23, N-(4-(3-fluorobenzyloxy)-3-ethynylphenyl)-6-(5-((4-methyl-1,4-azaphosphino-1-yl)methyl)furan-2-yl)quinazolin-4-amine]
- EGFR inhibition inhibit % at 100 nM or IC50 (nM) (EGFR kinase): ++ (>50% inhibition at 100 nM, or IC50 <100 nM for EGFR or ErbB2 kinases)
- IC50 (BT474 cells): 100 to 1000 nM

SMILES: Cc1cccc(COc2ccc(Nc3ncnc4ccc(-c5ccc(CN6CCP(C)(=O)CC6)o5)cc34)cc2Cl)[n+]1[O-] [Example 24, 2-((2-chloro-4-(6-(5-((4-methyl-1,4-azaphosphino-1-yl)methyl)furan-2-yl)quinazolin-4-ylamino)phenoxy)methyl)-6-methylpyridine 1-oxide]
- EGFR inhibition inhibit % at 100 nM or IC50 (nM) (EGFR kinase): ++ (>50% inhibition at 100 nM, or IC50 <100 nM for EGFR or ErbB2 kinases)
- IC50 (BT474 cells): 100 to 1000 nM

SMILES: CP(C)(=O)CCNCc1ccc(-c2ccc3ncnc(Nc4ccc5c(cnn5Cc5cccc(F)c5)c4)c3c2)o1 [Example 25, 6-(5-((2-(dimethylphosphinoyl)ethylamino)methyl)furan-2-yl)-N-(1-(3-fluorobenzyl)-1H-indazol-5-yl)quinazolin-4-amine]
- EGFR inhibition inhibit % at 100 nM or IC50 (nM) (EGFR kinase): ++ (>50% inhibition at 100 nM, or IC50 <100 nM for EGFR or ErbB2 kinases)
- IC50 (BT474 cells): 100 to 1000 nM

SMILES: CCN(CCP(C)(C)=O)Cc1ccc(-c2ccc3ncnc(Nc4ccc5c(cnn5Cc5cccc(F)c5)c4)c3c2)o1 [Example 26]
- EGFR inhibition inhibit % at 100 nM or IC50 (nM) (EGFR kinase): ++ (>50% inhibition at 100 nM, or IC50 <100 nM for EGFR or ErbB2 kinases)
- IC50 (BT474 cells): 100 to 1000 nM

SMILES: CP(C)(=O)CCN(CCO)Cc1ccc(-c2ccc3ncnc(Nc4ccc5c(cnn5Cc5cccc(F)c5)c4)c3c2)o1 [Example 27, 2-(N-((5-(4-(1-(3-fluorobenzyl)-1H-indazol-5-ylamino)quinazolin-6-yl)furan-2-yl)methyl)-N-(2-(dimethylphosphinoyl)ethyl)amino)ethanol]
- EGFR inhibition inhibit % at 100 nM or IC50 (nM) (EGFR kinase): ++ (>50% inhibition at 100 nM, or IC50 <100 nM for EGFR or ErbB2 kinases)
- IC50 (BT474 cells): < 100 nM

SMILES: CP1(=O)CCN(CC#Cc2ccc3ncnc(Nc4ccc5c(cnn5Cc5cccc(F)c5)c4)c3c2)CC1 [Example 28, N-(1-(3-fluorobenzyl)-1H-indazol-5-yl)-6-(3-(4-methyl-1,4-azaphosphino-1-yl)prop-1-ynyl)quinazolin-4-amine]
- EGFR inhibition inhibit % at 100 nM or IC50 (nM) (EGFR kinase): ++ (>50% inhibition at 100 nM, or IC50 <100 nM for EGFR or ErbB2 kinases)
- IC50 (BT474 cells): 100 to 1000 nM

SMILES: CS(=O)(=O)CCNCc1ccc(-c2ccc3ncnc(Nc4ccc(OCc5cccc(F)c5)c(Cl)c4)c3c2)o1 [lapatinib, Lapatinib]
- tumor growth inhibition rate (NCI-N87 xenograft; 75 mg/Kg of free base, oral BID, 4 weeks): 48%
- oral bioavailability (F) [5]: 32%
- oral bioavailability (F) [6]: 29%
- oral bioavailability (F) [7]: 63%
